Results published in ChEMBL document CHEMBL4321848 (J Med Chem, 2019).
pIC50, pKi: −log10 of the molar value.

Experiments:
[1] = biological target: T1, Nicotinamide N-methyltransferase (Homo sapiens, UniProt P40261); assay: biochemical
T1 sequence (P40261 whole entry): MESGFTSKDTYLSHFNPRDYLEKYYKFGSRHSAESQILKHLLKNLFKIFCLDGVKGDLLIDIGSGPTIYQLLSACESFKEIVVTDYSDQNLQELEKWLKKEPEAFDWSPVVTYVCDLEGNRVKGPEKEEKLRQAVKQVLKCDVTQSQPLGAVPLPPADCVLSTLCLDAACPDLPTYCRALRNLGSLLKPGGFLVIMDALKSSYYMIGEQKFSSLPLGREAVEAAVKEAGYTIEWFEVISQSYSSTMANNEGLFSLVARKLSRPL

[2] = biological target: T2, Phenylethanolamine N-methyltransferase (Homo sapiens, UniProt P11086); assay: Inhibition of human N-terminal His6 tagged PNMT using norepinephrine as substrate preincubated for 10 mins in presence of AdoMet followed by substrate addition by fluorescence based SAHH enzyme coupled assay
T2 sequence (P11086 whole entry): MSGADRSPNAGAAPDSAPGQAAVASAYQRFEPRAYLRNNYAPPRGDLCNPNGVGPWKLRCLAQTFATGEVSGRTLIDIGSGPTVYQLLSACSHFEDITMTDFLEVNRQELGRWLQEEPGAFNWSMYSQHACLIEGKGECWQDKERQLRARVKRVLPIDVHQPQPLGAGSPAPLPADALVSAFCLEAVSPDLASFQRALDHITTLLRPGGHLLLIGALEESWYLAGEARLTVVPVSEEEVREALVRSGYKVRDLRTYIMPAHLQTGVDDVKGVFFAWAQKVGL

[3] = biological target: Indolethylamine N-methyltransferase (Homo sapiens, UniProt O95050); assay: Inhibition of human N- terminal His6 tagged human INMT expressed in Escherichia coli BL21-CodonPlus(DE3)-RIL using tryptamine as substrate preincubated for 10 mins in presence of AdoMet followed by substrate addition by fluorescence based SAHH enzyme coupled assay
Chain of Indolethylamine N-methyltransferase (O95050 whole entry, the tested form may be a part): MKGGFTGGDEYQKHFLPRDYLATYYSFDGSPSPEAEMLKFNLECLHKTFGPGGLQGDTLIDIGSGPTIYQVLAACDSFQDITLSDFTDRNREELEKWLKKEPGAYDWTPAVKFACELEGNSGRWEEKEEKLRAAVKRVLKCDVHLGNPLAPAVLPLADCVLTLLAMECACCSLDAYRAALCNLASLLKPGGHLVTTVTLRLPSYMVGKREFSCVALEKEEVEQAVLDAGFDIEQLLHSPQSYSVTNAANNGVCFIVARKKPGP

[4] = biological target: T3, Histone-lysine N-methyltransferase EHMT2 (Homo sapiens, UniProt Q96KQ7); assay: Inhibition of recombinant human G9a (913 to 1193 residues) expressed in Escherichia coli BL21-CodonPlus(DE3)-RIL using H3-21 peptide preincubated for 10 mins in presence of AdoMet followed by substrate addition by fluorescence based SAHH enzyme coupled assay
T3 sequence (Q96KQ7 whole entry): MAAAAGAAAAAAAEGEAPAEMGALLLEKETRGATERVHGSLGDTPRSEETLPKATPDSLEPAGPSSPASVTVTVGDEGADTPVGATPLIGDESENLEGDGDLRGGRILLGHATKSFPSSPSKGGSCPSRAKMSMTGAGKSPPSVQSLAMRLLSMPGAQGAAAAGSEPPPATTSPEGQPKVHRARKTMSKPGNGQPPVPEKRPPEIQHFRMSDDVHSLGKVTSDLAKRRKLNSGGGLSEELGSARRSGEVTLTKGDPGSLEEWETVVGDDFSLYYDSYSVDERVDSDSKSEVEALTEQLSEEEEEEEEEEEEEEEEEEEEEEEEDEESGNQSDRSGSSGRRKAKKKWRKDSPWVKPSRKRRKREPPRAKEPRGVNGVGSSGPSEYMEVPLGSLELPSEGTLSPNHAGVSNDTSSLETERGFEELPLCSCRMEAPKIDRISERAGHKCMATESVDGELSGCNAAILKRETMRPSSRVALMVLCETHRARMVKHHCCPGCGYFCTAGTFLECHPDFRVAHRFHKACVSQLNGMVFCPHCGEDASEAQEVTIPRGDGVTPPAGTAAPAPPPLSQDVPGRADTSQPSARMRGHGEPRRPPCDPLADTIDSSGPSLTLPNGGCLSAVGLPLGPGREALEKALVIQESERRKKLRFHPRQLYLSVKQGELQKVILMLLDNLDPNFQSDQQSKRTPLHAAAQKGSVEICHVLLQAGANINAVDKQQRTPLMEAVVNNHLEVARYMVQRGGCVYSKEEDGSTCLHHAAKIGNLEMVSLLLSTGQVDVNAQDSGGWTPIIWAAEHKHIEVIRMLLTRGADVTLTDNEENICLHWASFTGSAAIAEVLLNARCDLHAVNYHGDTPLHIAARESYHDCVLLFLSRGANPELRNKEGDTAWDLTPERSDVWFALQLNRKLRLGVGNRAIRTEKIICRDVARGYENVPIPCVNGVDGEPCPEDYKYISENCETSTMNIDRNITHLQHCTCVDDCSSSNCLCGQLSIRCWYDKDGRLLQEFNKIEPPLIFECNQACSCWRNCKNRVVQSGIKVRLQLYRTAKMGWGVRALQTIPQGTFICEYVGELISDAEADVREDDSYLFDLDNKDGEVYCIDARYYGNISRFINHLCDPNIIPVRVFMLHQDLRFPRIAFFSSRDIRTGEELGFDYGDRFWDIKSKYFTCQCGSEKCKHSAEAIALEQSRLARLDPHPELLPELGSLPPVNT

[5] = biological target: T4, Histone-lysine N-methyltransferase SETD7 (Homo sapiens, UniProt Q8WTS6); assay: Inhibition of recombinant human His-tagged SETD7 (1 to 366 residues) expressed in Escherichia coli using H3-21 peptide as susbtrate preincubated for 10 mins in presence of AdoMet followed by substrate addition by fluorescence based SAHH enzyme coupled assay
T4 sequence (Q8WTS6 whole entry): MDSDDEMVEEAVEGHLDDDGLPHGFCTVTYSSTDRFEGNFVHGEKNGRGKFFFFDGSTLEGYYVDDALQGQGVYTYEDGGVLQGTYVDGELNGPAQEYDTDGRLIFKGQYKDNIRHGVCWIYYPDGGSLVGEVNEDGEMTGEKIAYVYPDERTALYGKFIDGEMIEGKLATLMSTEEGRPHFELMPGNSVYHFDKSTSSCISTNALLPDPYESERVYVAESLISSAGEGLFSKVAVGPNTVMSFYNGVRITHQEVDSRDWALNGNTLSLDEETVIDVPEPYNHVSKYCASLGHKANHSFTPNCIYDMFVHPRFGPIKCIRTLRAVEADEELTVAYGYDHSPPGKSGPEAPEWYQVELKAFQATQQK

[6] = biological target: Protein arginine N-methyltransferase 1 (Rattus norvegicus, UniProt Q63009); assay: Inhibition of recombinant rat His-tagged PRMT1 expressed in Escherichia coli BL21(DE3) cells using H4-21 peptide as susbtrate preincubated for 10 mins in presence of AdoMet followed by substrate addition by fluorescence based SAHH enzyme coupled assay
Chain of Protein arginine N-methyltransferase 1 (Q63009 whole entry): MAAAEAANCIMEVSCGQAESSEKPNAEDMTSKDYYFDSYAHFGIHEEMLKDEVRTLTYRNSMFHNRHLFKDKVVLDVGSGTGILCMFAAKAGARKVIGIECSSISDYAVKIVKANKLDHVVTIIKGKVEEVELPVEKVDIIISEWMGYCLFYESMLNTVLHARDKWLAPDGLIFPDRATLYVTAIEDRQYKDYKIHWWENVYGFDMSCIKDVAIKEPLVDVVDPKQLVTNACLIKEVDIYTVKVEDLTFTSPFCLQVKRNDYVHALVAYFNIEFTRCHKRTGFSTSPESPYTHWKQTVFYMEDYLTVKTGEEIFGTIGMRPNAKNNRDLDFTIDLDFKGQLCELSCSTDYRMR

[7] = Inhibition of Trypanosoma brucei PRMT7 expressed in Escherichia coli preincubated for 10 mins in presence of AdoMet followed by susbtrate addition by fluorescence based SAHH enzyme coupled assay
[8] = biological target: T5, N-terminal Xaa-Pro-Lys N-methyltransferase 1 (Homo sapiens, UniProt Q9BV86); assay: Inhibition of NTMT1 (unknown origin) using GPKRIA peptide as substrate preincubated for 10 mins in presence of AdoMet followed by susbtrate addition by fluorescence based SAHH enzyme coupled assay
T5 sequence (Q9BV86 whole entry): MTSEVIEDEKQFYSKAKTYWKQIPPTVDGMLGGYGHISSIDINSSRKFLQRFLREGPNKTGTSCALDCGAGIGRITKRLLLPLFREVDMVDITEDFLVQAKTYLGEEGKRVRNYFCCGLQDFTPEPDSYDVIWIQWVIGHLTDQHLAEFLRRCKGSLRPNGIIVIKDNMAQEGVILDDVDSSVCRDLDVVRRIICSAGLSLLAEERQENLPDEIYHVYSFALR

Adenosylhomocysteinase = Adenosylhomocysteinase (Homo sapiens, UniProt P23526); assay: Inhibition of SAHH (unknown origin) using SAH as substrate preincubated for 10 mins followed by susbtrate addition by fluorescence based assay
Chain of Adenosylhomocysteinase (P23526 whole entry): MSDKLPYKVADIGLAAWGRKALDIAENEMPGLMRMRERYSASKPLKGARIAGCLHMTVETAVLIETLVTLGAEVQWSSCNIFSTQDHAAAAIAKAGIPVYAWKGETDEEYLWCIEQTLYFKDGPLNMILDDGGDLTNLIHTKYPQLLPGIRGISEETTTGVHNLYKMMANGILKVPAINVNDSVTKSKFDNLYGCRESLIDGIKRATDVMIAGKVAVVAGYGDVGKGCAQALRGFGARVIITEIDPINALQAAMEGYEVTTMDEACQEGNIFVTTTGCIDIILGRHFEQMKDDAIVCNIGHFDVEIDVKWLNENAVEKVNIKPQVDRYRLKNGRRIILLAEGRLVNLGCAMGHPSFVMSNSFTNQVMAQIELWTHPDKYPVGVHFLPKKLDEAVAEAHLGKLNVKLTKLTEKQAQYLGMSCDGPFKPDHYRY

pKi [1] | SMILES | other results
6.08 | NC(=O)c1cccc(CCCCN(CC[C@H](N)C(=O)O)C[C@H]2O[C@@H](n3cnc4c(N)ncnc43)[C@H](O)[C@@H]2O)c1 | 
4.55 | COC(=O)c1cccc(CCCN(CC[C@H](N)C(=O)O)C[C@H]2O[C@@H](n3cnc4c(N)ncnc43)[C@H](O)[C@@H]2O)c1 | 
7.37 | NC(=O)c1cccc(CCCN(CC[C@H](N)C(=O)O)C[C@H]2O[C@@H](n3cnc4c(N)ncnc43)[C@H](O)[C@@H]2O)c1 | 
4.93 | Nc1ncnc2c1ncn2[C@@H]1O[C@H](CN(CCCc2cccc3ccccc23)CC[C@H](N)C(=O)O)[C@@H](O)[C@H]1O | 
7.29 | Cc1ccc(CCCN(CC[C@H](N)C(=O)O)C[C@H]2O[C@@H](n3cnc4c(N)ncnc43)[C@H](O)[C@@H]2O)cc1C(N)=O | 
4.56 | Nc1ncnc2c1ncn2[C@@H]1O[C@H](CN(CCc2ccc3ccccc3c2)CC[C@H](N)C(=O)O)[C@@H](O)[C@H]1O | 
4.48 | Nc1ncnc2c1ncn2[C@@H]1O[C@H](CN(CCCc2ccc3ccccc3c2)CCC[C@H](N)C(=O)O)[C@@H](O)[C@H]1O | 
6.27 | NC(=O)c1cccc(CCCCN(CCC[C@H](N)C(=O)O)C[C@H]2O[C@@H](n3cnc4c(N)ncnc43)[C@H](O)[C@@H]2O)c1 | 
5.52 | NC(=O)c1cccc(CCCN(CCC[C@H](N)C(=O)O)C[C@H]2O[C@@H](n3cnc4c(N)ncnc43)[C@H](O)[C@@H]2O)c1 | 
6.82 | Cc1ccc(C(N)=O)cc1CCCN(CC[C@H](N)C(=O)O)C[C@H]1O[C@@H](n2cnc3c(N)ncnc32)[C@H](O)[C@@H]1O | 
7.28 | COc1ccc(C(N)=O)cc1C#CCN(CC[C@H](N)C(=O)O)C[C@H]1O[C@@H](n2cnc3c(N)ncnc32)[C@H](O)[C@@H]1O | 
5.52 | NC(=O)c1cccc(C#CCNC[C@H]2O[C@@H](n3cnc4c(N)ncnc43)[C@H](O)[C@@H]2O)c1 | 
5.40 | Nc1ncnc2c1ncn2[C@@H]1O[C@H](CN(CCCc2ccc3ccccc3c2)CC[C@H](N)C(=O)O)[C@@H](O)[C@H]1O | 
7.80 | Cc1ccc(C#CCN(CC[C@H](N)C(=O)O)C[C@H]2O[C@@H](n3cnc4c(N)ncnc43)[C@H](O)[C@@H]2O)cc1C(N)=O | 
 | NC(=O)c1cccc(C#CCN(CC[C@H](N)C(=O)O)C[C@H]2O[C@@H](n3cnc4c(N)ncnc43)[C@H](O)[C@@H]2O)c1 | pIC50 [2]: < 4.00; pIC50 [3]: < 4.00; pIC50 [4]: < 4.00; pIC50 [5]: < 4.00; pIC50 [6]: < 4.00; pIC50 [7]: < 4.48; pIC50 [8]: < 4.48; pIC50 (Adenosylhomocysteinase): < 5.43
5.96 | Nc1ncnc2c1ncn2[C@@H]1O[C@H](CN(CCCc2cccc3ccccc23)CCC[C@H](N)C(=O)O)[C@@H](O)[C@H]1O | 

SMILES | pKi [1] | other results
NC(=O)c1cccc(CCN(CC[C@H](N)C(=O)O)C[C@H]2O[C@@H](n3cnc4c(N)ncnc43)[C@H](O)[C@@H]2O)c1 | 5.00 | 
NC(=O)c1ccccc1 [BENZAMIDE] | < 4.00 | 
